Results taken from paper PMC10630452, “The tumor-enriched small molecule gambogic amide suppresses glioma by targeting WDR1-dependent cytoskeleton remodeling” (Signal Transduction and Targeted Therapy, 2023).

What was measured:
WDR1 = molecular target: T1, WDR1 (Homo sapiens, UniProt O75083); assay: Cellular thermal shift assay (CETSA) in T2-4 cells; format: cell-based; conditions: 3 µM, 1 h, 67°C–70°C
T1 construct: GA-amide protected WDR1 at different temperature gradients in the CETSA in T2-4 cells; endogenous in cells; host or cells: T2-4 patient-derived glioma cells
T1 sequence (O75083 whole entry): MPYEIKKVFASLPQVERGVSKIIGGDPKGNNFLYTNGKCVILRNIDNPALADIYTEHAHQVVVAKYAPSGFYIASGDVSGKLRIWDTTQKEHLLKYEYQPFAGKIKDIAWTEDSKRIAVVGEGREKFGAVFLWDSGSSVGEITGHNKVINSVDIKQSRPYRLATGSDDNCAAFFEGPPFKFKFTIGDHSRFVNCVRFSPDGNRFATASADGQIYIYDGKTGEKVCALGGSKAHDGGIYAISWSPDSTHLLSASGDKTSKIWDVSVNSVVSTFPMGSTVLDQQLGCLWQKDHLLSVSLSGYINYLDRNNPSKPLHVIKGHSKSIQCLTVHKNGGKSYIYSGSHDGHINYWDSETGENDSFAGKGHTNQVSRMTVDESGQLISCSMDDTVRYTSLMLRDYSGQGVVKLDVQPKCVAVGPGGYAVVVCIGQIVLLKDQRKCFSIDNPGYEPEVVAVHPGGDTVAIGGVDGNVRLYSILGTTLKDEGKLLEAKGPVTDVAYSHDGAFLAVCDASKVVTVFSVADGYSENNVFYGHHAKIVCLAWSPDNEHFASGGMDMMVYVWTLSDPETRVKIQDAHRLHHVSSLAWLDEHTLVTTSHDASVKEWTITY
Experimental: The cellular thermal shift assay (CETSA) has been described previously. Briefly, cells were incubated with DMSO or 3 µM GA-amide for 1 h and washed with PBS three times. Then, the cells were suspended in 1 mL of PBS and divided into equal volumes, followed by heating for 3 min at the indicated temperatures. After heating, three snap freeze–thaw cycles were applied to lyse the cells, and western blotting was performed as previously described.

PDCs and GSCs = assay: Transwell cell invasion assay; format: cell-based; conditions: 0.1 μM and 0.3 μM, 48–72 h
Experimental: First, cells were starved for 12 h. The top surface of the membrane in the upper transwell chamber was coated with Matrigel (dilution ratio, 1:100, Corning, USA) by incubation for 30 min. Cells were plated in the upper chamber with serum-free neurobasal medium containing the corresponding concentration of GA-amide, and 600 μL of neurobasal medium containing 10% FBS and the same concentration of GA-amide was added to the lower chamber for 24–72 h of culture. Next, the cells in the transwell chamber were fixed with 4% paraformaldehyde for 20 min. After noninvaded cells in the upper chamber were removed by wiping, the remaining cells were stained with 1% crystal violet staining solution for 20 min and washed with double-distilled water. Finally, cell invasion was evaluated by microscopy.

[1] = tested on: TMZ-resistant cells (T2-4, GSC2 and T12-1); assay: Time curve cell viability assay (MTS); format: cell-based; conditions: PDCs and GSCs
Experimental: Fig. 2 The BBB permeability and tumor suppressor ability of GA-amide compared with TMZ. GA-amide (a) or TMZ (b) concentration in the tumor area and normal brain tissue following a single injection of GA-amide (10 mg/kg, i.v.) or TMZ (10 mg/kg, i.v.). The data are presented as the means ± SEMs (n = 3). c Western blot analysis of the expression of TrkA in mouse tumor tissues (T) and normal brain tissues (N), n = 4. d Western blot analysis of glycosylated TrkA expression in human normal brain tissues (N) and glioma tissues of different grades. e Time curve of GA-amide and TMZ treatment in a cell viability assay (MTS) in T2-4, GSC2 and T12-1 cells. f–h A PDX mouse model was established, and the mice were treated with vehicle (control, n = 9), 2 mg/kg GA-amide (n = 9), 2 mg/kg GAC (n = 9) or […] TMZ (n = 8) by i.p. injection daily for 10 days. A summary photograph is presented in (f), statistical results in (g) and the body weights of mice in (h); the mean ± SEMs are shown. n.s: P ≥ 0.05, *P < 0.05, **P < 0.01 and ***P < 0.001 compared with the control group by one-way ANOVA at each time point

[2] = Acute toxicity assay, mice serum biochemical indexes; format: in vivo
[3] = tested on: GSC2 subcutaneous xenograft; assay: GSC2-derived subcutaneous xenograft model; format: in vivo, nude mice; conditions: 2 mg/kg i.p. once daily for 11 days
Experimental: (§1) Fig. 3 The inhibitory effects of GA-amide in glioma stem cell-derived mouse models and transgenic mouse models. a, b GSC2 cells were implanted s.c. into nude mice. Mice were treated with control (DMSO) (n = 7) or GA-amide (2 mg/kg) (n = 8) via i.p. injection once daily for 11 days, after which a photograph (a) was taken to show the tumor volume, and the tumor volume was calculated by a modified ellipsoid formula in (b). c, d GSC2 cells were implanted intracranially into nude mice. Mice were injected i.v. with control (n = 8) or 1 mg/kg GA-amide (n = 8) daily for 13 days, the Mantel‒Cox log–rank test was used for analysis, and the relative survival curves are shown in (c). The body weights are shown in (d). e In vivo efficacy studies of GA-amide using transgenic mouse models. Glioma was induced in transgenic C57BL/6 mice by injection of pTomo-Ras-sip53 lentivirus, and the strategy is shown. f, g MRI analysis was used to group mice into the control (n = 7) and GA-amide-treated groups (n = 8) before treatment. The statistical results are shown in (f), and representative MRI images are shown in (g). […]

[4] = tested on: primary brain tumor (H-RasV12 activated, p53 silenced); assay: Transgenic mouse glioma model (pTomo-Ras-sip53 lentivirus); format: in vivo, C57BL/6 mice; conditions: 1 mg/kg i.v. daily for 11 days
Experimental: as §1

infarct = conditions: subcutaneous injection of 2 mg/kg; cited from earlier work
hippocampal neurons = conditions: cited from earlier work

Question: For `CC(C)=CCC[C@]1(C)C=Cc2c(O)c3c(c(CC=C(C)C)c2O1)O[C@]12C(=C[C@@H]4CC1C(C)(C)O[C@@]2(C/C=C(/C)C(N)=O)C4=O)C3=O` [GA-amide, gambogic amide], which “WDR1 thermal stabilization (western blot band)” value (WDR1) is on record?
Answer: Its value is “the band persisted in the cells treated with GA-amide”.

Question: What about the “number of invading cells (transwell)” value (PDCs and GSCs) of the same compound?
Answer: Its value is “significant decrease in the number of invading PDCs and GSCs”.

Question: What about the “viability of TMZ-resistant cells over time” value [1] of the same compound?
Answer: The value was “effectively reduced the viability of TMZ-resistant cells”.

Question: What about the “ALB (albumin)” value ([2]; 1mg/kg one-time i.v.) of the same compound?
Answer: Its value is 19.5 ± 2.4 g/L.

Question: What about the “ALP (alkaline phosphatase)” value ([2]; 1mg/kg one-time i.v.) of the same compound?
Answer: Its value is 214±36 U/L.

Question: And the “ALT (alanine aminotransferase)” value ([2]; 1mg/kg one-time i.v.)?
Answer: Its value is 26±2 U/L.

Question: And the “AST (aspartate aminotransferase)” value ([2]; 1mg/kg one-time i.v.)?
Answer: The value was 99±20 U/L.

Question: What about the “CA (calcium)” value ([2]; 1mg/kg one-time i.v.) of the same compound?
Answer: The value was 2.53 ± 0.12 mmol/L.

Question: What about the “CHE (cholinesterase)” value ([2]; 1mg/kg one-time i.v.) of the same compound?
Answer: The value was 7909±1092 U/L.

Question: And the “CK (creatine kinase)” value ([2]; 1mg/kg one-time i.v.)?
Answer: Its value is 910±503 U/L.

Question: What about the “CRE (creatinine)” value ([2]; 1mg/kg one-time i.v.) of the same compound?
Answer: The value was 11.1 ± 1.1 µmol/L.

Question: What about the Cl ([2]; 1mg/kg one-time i.v.) of the same compound?
Answer: Its Cl is 112.0 ± 2.2 mmol/L.

Question: And the “GGT (Gammagliutamyltranspherase)” value ([2]; 1mg/kg one-time i.v.)?
Answer: The value was -1±1 U/L.

Question: And the “GLU (glucose)” value ([2]; 1mg/kg one-time i.v.)?
Answer: The value was 8.21 ± 3.50 mmol/L.

Question: What about the K ([2]; 1mg/kg one-time i.v.) of the same compound?
Answer: Its K is 5.99 ± 0.84 mmol/L.

Question: What about the NA ([2]; 1mg/kg one-time i.v.) of the same compound?
Answer: The NA was 147.4 ± 1.5 mmol/L.

Question: And the “TBA (total bile acid)” value ([2]; 1mg/kg one-time i.v.)?
Answer: The value was 8.6 ± 6.4 µmol/L.

Question: And the “TBIL (total bilirubin)” value ([2]; 1mg/kg one-time i.v.)?
Answer: The value was 3.3 ± 0.5 µmol/L.

Question: And the “TCHO (total cholesterol)” value ([2]; 1mg/kg one-time i.v.)?
Answer: Its value is 4.34 ± 1.10 mmol/L.

Question: What about the “TG (triglyceride)” value ([2]; 1mg/kg one-time i.v.) of the same compound?
Answer: Its value is 1.30 ± 0.29 mmol/L.

Question: And the “TP (total protein)” value ([2]; 1mg/kg one-time i.v.)?
Answer: The value was 54.5 ± 6.7 g/L.

Question: What about the UREA ([2]; 1mg/kg one-time i.v.) of the same compound?
Answer: The UREA was 8.11 ± 1.58 mmol/L.

Question: What about the “ALB (albumin)” value ([2]; 10mg/kg one-time i.v.) of the same compound?
Answer: Its value is 20.0 ± 0.9 g/L.

Question: And the “ALP (alkaline phosphatase)” value ([2]; 10mg/kg one-time i.v.)?
Answer: The value was 217±33 U/L.

Question: And the “ALT (alanine aminotransferase)” value ([2]; 10mg/kg one-time i.v.)?
Answer: Its value is 37±12 U/L.

Question: And the “AST (aspartate aminotransferase)” value ([2]; 10mg/kg one-time i.v.)?
Answer: Its value is 113±22 U/L.

Question: And the “CA (calcium)” value ([2]; 10mg/kg one-time i.v.)?
Answer: Its value is 2.54 ± 0.07 mmol/L.

Question: And the “CHE (cholinesterase)” value ([2]; 10mg/kg one-time i.v.)?
Answer: Its value is 7828±721 U/L.

Question: What about the “CK (creatine kinase)” value ([2]; 10mg/kg one-time i.v.) of the same compound?
Answer: The value was 1157±539 U/L.

Question: And the “CRE (creatinine)” value ([2]; 10mg/kg one-time i.v.)?
Answer: The value was 10.9 ± 0.6 µmol/L.

Question: What about the Cl ([2]; 10mg/kg one-time i.v.) of the same compound?
Answer: Its Cl is 111.5 ± 1.7 mmol/L.

Question: And the “GGT (Gammagliutamyltranspherase)” value ([2]; 10mg/kg one-time i.v.)?
Answer: The value was -1±1 U/L.

Question: What about the “GLU (glucose)” value ([2]; 10mg/kg one-time i.v.) of the same compound?
Answer: The value was 5.61 ± 0.60 mmol/L.

Question: What about the K ([2]; 10mg/kg one-time i.v.) of the same compound?
Answer: The K was 5.97 ± 0.33 mmol/L.

Question: And the NA ([2]; 10mg/kg one-time i.v.)?
Answer: The NA was 147.7 ± 2.0 mmol/L.

Question: What about the “TBA (total bile acid)” value ([2]; 10mg/kg one-time i.v.) of the same compound?
Answer: Its value is 7.9 ± 4.5 µmol/L.

Question: And the “TBIL (total bilirubin)” value ([2]; 10mg/kg one-time i.v.)?
Answer: The value was 3.8 ± 1.0 µmol/L.

Question: What about the “TCHO (total cholesterol)” value ([2]; 10mg/kg one-time i.v.) of the same compound?
Answer: Its value is 4.75 ± 0.93 mmol/L.

Question: And the “TG (triglyceride)” value ([2]; 10mg/kg one-time i.v.)?
Answer: Its value is 1.62 ± 0.48 mmol/L.

Question: What about the “TP (total protein)” value ([2]; 10mg/kg one-time i.v.) of the same compound?
Answer: The value was 55.5 ± 1.8 g/L.

Question: What about the UREA ([2]; 10mg/kg one-time i.v.) of the same compound?
Answer: The UREA was 8.62 ± 1.32 mmol/L.

Question: And the tumor growth [3]?
Answer: Its tumor growth is “significantly inhibited the growth of tumors”.

Question: What about the “Ki67 and CD133 expression in tumor sections” value [4] of the same compound?
Answer: The value was “lower expression of the proliferation marker Ki67”.

Question: What about the “tumor size by MRI versus control” value [4] of the same compound?
Answer: The value was “significantly smaller compared to the control mice”.

Question: What about the infarct volume (infarct) of the same compound?
Answer: Its infarct volume is “significantly reduce the infarct volume”.

Question: What about the toxicity in vitro (hippocampal neurons; 0.5 μM) of the same compound?
Answer: The toxicity in vitro was “did not display any toxicity in vitro”.

Question: What about the “concentrations with protective effect on hippocampal neurons against glutamate-triggered apoptosis” value (hippocampal neurons; also induced neurite outgrowth in PC12 cells) of the same compound?
Answer: The value was 10 to 50 nM.
